Several values for one entry are separate records, joined by “and”; a condition that tells them apart may be missing. Equal entries are not always repeated.
Tests used:
[1] = system: pyramidal cell layer of CA1, hippocampus slices; assay: hippocampus slice, provocation with bicuculline; design: species or system rat; settings: bicuculline 50 μM alone, mean of 4 slices, one mean per series
Description: (§1) Hippocampus slices were obtained from 11 adult male Sprague-Dawlay rats (Charles River Wiga, Sulzbach, Germany). Rats were kept under a reversed day-night cycle for 2 weeks prior start of the experiments, to allow recording of in-vitro activity from slices during the active phase of their circadian rhythm (Dimpfel et al., 1994, Dimpfel et al., 1995). Animals were exsanguinated under ether anaesthesia, the brain was removed in total and the hippocampal formation was isolated under microstereoscopic sight. The midsection of the hippocampus was fixed to the table of a vibrating microtome (Rhema Labortechnik, Hofheim, Germany) using a cyanoacrylate adhesive, submerged in chilled bicarbonate-buffered saline (artificial cerebro spinal fluid (ACSF) NaCl: 124 mM; KCl: 5 mM; CaCl2: 2 mM; MgSO4: 2 mM; NaHCO3: 26 mM; and glucose: 10 mM), and cut into slices of 400 μm thickness. All slices were preincubated for at least 1 h in carbogen ([…])-saturated ACSF (pH 7.4) in a prechamber before use (see also Dimpfel et al., 1991).
During the experiment the slices were held and treated in a special Superfusion chamber (List Electronics, Darmstadt, Germany) at 35° C. according to Haas et al., 1979 (see also: Schiff and Somjen, 1985). Four slices were used from one rat per day under one of the test conditions (control or various concentrations of the S1 compound). […]

[2] = system: pyramidal cell layer of CA1, hippocampus slices; assay: hippocampus slice, provocation with pentylenetetrazol; design: species or system rat; settings: PTZ 50 μM alone
Description: as §1
During the experiment the slices were held and treated in a special Superfusion chamber (List Electronics, Darmstadt, Germany) at 35° C. according to Haas et al., 1979 (see also: Schiff and Somjen, 1985). Four slices were used from one rat per day under one of the test conditions (control or various concentrations of the S1 compound). The preparation was superfused with artificial cerebrospinal fluid (ACSF) at 180-230 ml/h. Electrical stimulation (200 μA constant current pulses of 200 μs pulse width) of the Schaffer Collaterals within the […] area and recording of extracellular field potentials from the pyramidal cell layer of CA1 (Dimpfel et al., 1991) as shown in FIG. 4 and FIG. 5 was performed according to conventional electrophysiological methods using the “Labteam” Computer system and “NeuroTool” software package (Medisyst GmbH, Linden, Germany). Measurements were performed at 10 min intervals to avoid potentiation mechanisms. Four stimulations—each 20 seconds apart—were averaged for each time point. […]

SMILES	population spike amplitude in % of ACSF value, Bicuculline 50 μM, mean (X) [1]	population spike amplitude in % of ACSF value, PTZ 50 μM, mean (X) ([2]; mean of 4 slices) [%]	population spike amplitude, PTZ 50 μM, mean (X) ([2]; mean of 4 slices) [μV]	population spike amplitude in % of ACSF value, PTZ 50 μM ([2]; single slices)
CN1CCc2cc3c(cc2[C@H]1[C@@H]1OC(=O)c2c1ccc1c2OCO1)OCO3 [Bicuculline]	256.6% and 248.7% and 237.6% and 249.6%	–	–	–
C1CCc2nnnn2CC1 [PTZ, 6,7,8,9-tetrahydro-5h-tetrazolo(1,5-a)azepine]	–	243.9	−2854.9	254.2% and 244.7% and 232.8% and 243.7%
